Measurements from patent US10730826B2, “Ketone inhibitors of lysine gingipain” (CORTEXYME, INC., priority 2016, dated 2020).

Experiments:
Kgp [1] = molecular target: T1, Kgp (Porphyromonas gingivalis (strain ATCC 33277 / DSM 20709 / CIP 103683 / JCM 12257 / NCTC 11834 / 2561), UniProt B2RLK2); assay: Buccal cell staining with activity probe; format: cell-based, human; settings: 1 μM probe, 1 hr, 37° C., FIG. 7
Procedure: Cells were incubated for 1 hr at 37° C. and pelleted. Cells were resuspended in 20 μL of PBS and placed on poly-L-lysine coated slides, washed, and dried. Slides were mounted with antifade mounting media containing DAPI and visualized under a fluorescence microscope.

Kgp [2] = molecular target: T2, Kgp (Porphyromonas gingivalis (Bacteroides gingivalis), UniProt Q51817); assay: Activity probe labelling of Kgp in P. gingivalis-infected Jurkat cells (SDS-PAGE); format: cell-based; settings: purified Kgp and infected Jurkat cells, FIG. 6A
Source text: The identity of this labeled protein in P. gingivalis-infected cells was confirmed to be Kgp by Western blot.

Kgp [3] = molecular target: T1, Kgp; assay: Gingival tissue staining with activity probe; parameters: species or system human; settings: patient with periodontal disease, FIG. 5B
Procedure: Slides of fresh frozen gingival tissue (5 micron thickness) were removed from a −80° C. freezer and thawed at RT for 10 min. […] Slides were then washed three times in PBS, 5 min each, then fixed in fresh 4% PFA for 15 min at RT, then washed again three times in PBS. Then slides were incubated with a 1× working Trueblack solution (Biotium) for 30 min at RT. Slides were then washed three times in PBS and mounted with anti-fade mounting media containing DAPI (FIG. 5B).

[4] = molecular target: Kgp in P. gingivalis W83 bacteria (Porphyromonas gingivalis (Bacteroides gingivalis), UniProt Q51817); assay: Bacterial smear staining with gingipain activity probes; format: cell-based; settings: 1 μM probe, 1 hr, 37° C.; no signal in Kgp knockout
Procedure: Bacteria were then pelleted and resuspended in 20 μl of PBS, which was dropped onto a poly-L-lysine coated slide and kept in a dark box at room temperature for about 2 hrs in order for the droplet to dry. The slide was then washed 3 times in PBS. Slides were mounted with a mounting media containing DAPI stain for bacterial DNA and visualized under fluorescence microscopy.

Kgp [5] = molecular target: T2, Kgp; assay: Biotin activity probe pull-down of Kgp from P. gingivalis lysate; format: binding; settings: streptavidin beads, Western blot with CAB102, FIG. 8
Procedure: P. gingivalis W83 was lysed with B-Per buffer for 15 min at 4° C. […] 5 mg of streptavidin-beads were incubated with all samples for 1 hr at room temperature on an inverting platform. The beads were collected after 1 hr and heated at 100° C. for 5 min with 0.1% SDS to disrupt biotin-streptavidin binding. The resulting supernatants were analyzed by SDS-PAGE and Western blotting for specific detection of Kgp with CAB102 (FIG. 8).

SMILES	staining of buccal cells (Kgp [1])	binding of probe to Kgp (Kgp [2])	fluorescence signal in gingival tissue section (Kgp [3])	fluorescence of W83 bacteria after exposure to probe [4]	amount of P. gingivalis from which Kgp was pulled down and detected (Kgp [5])
CC1=CC(C)=[N+]2C1=Cc1ccc(CCC(=O)NCc3cn(-c4cccc(C(=O)NC(CCCCN)C(=O)COc5c(F)cccc5F)c4)nn3)n1[B-]2(F)F (centres unmarked) [Compound 15a]	pronounced, punctate staining	irreversibly binds to purified Kgp	yields a fluorescence signal	fluorescent	
NCCCCC(NC(=O)c1cccc(-n2cc(CNC(=O)CCCC[C@@H]3SC[C@@H]4NC(=O)N[C@@H]43)nn2)c1)C(=O)COc1c(F)cccc1F (some centres unmarked) [Compound 51a]					at least 10^6 CFU
